Measured values published in patent publication US4206215A, “Antimicrobial bis-[4-(substituted-amino)-1-pyridinium]alkanes” (Sterling Drug Inc., priority 1977, dated 1980).
Where two headings read alike, the source gives them in different places.

Columns and labels:
E. coli AB1932-1 = experiment: In vitro antibacterial activity, MIC (modified Autotiter method); assay type: cell-based, Escherichia coli; conditions: Escherichia coli, AB19321, 20 h, read-out: MIC E. coli AB1932-1
In short: (§1)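 MIC by modified Autotiter twofold broth dilution from a 1,000 mcg./ml. compound solution in inoculated semisynthetic glucose medium. Final drug concentrations ranged from 500 to 0.06 mcg./ml.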

E. coli Vogel = experiment: as above; assay type: cell-based, Escherichia coli; conditions: Escherichia coli, 20 h, read-out: MIC E. coli Vogel
In short: as §1

E. coli 100/B22 = experiment: as above; assay type: cell-based, Escherichia coli; conditions: Escherichia coli, 100/B22, 20 h
In short: as §1

[1] = test system: Herpes simplex type 2 virus; experiment: Virucidal activity in vitro (plaque inhibition test); assay type: cell-based; conditions: 2 mg. of test compound on growth medium
Method: Virucidal activity of representative examples against Herpes simplex type 2 virus was determined in vitro employing a procedure similar to the plaque inhibition test for detection of specific inhibitors of DNA-containing viruses published by E. C. Herrmann, Jr., Proc. Soc. Exp. Biol. Med. 107, 142 (1961) wherein 2 mg. of the test compound was placed on the surface of the growth medium.

C. albicans 10231 = experiment: In vitro antifungal activity, MIC (modified Autotiter method); assay type: cell-based, Candida albicans; conditions: Candida albicans, 10231, 20 h, read-out: MIC C. albicans 10231
In short: as §1

C. albicans Wisc. = experiment: as above; assay type: cell-based, Candida albicans; conditions: Candida albicans, 20 h, read-out: MIC C. albicans Wisc.
In short: as §1

T. menta. 9129 = experiment: as above; assay type: cell-based, Trichophyton mentagrophytes; conditions: Trichophyton mentagrophytes, 20 h, read-out: MIC T. menta. 9129
In short: as §1

A. niger 16404 = experiment: as above; assay type: cell-based, Aspergillus niger; conditions: Aspergillus niger, 16404, 20 h, read-out: MIC A. niger 16404
In short: as §1

P. mirab. MGH-1 = experiment: In vitro antibacterial activity, MIC (modified Autotiter method); assay type: cell-based, Proteus mirabilis; conditions: Proteus mirabilis, 20 h, read-out: MIC P. mirab. MGH-1
In short: as §1

S. Aureus Smith = experiment: as above; assay type: cell-based, Staphylococcus aureus; conditions: Staphylococcus aureus, 20 h, read-out: MIC S. Aureus Smith
In short: as §1

K. pneum. 39645 = experiment: as above; assay type: cell-based, Klebsiella pneumoniae; conditions: Klebsiella pneumoniae, 20 h, read-out: MIC K. pneum. 39645
In short: as §1

Ps. aerug. MGH-2 = experiment: as above; assay type: cell-based, Pseudomonas aeruginosa; conditions: Pseudomonas aeruginosa, 20 h, read-out: MIC Ps. aerug. MGH-2
In short: as §1

S. pyogen. C203 = experiment: as above; assay type: cell-based, Streptococcus pyogenes; conditions: Streptococcus pyogenes, 20 h, read-out: MIC S. pyogen. C203
In short: as §1

[2] = 18-20 hours at 37° C., read-out: MIC E. coli 100/B22

| SMILES | MIC (E. coli AB1932-1; 18-20 hours at 37° C.) | MIC (E. coli Vogel; 18-20 hours at 37° C.) | MIC (E. coli 100/B22; [2]) | Virucidal activity against Herpes simplex type 2 virus [1] | MIC (C. albicans 10231; 18-20 hours at 37° C.) | MIC (C. albicans Wisc.; 18-20 hours at 37° C.) | MIC (T. menta. 9129; 18-20 hours at 37° C.) | MIC (A. niger 16404; 18-20 hours at 37° C.) | MIC (P. mirab. MGH-1; 18-20 hours at 37° C.) | MIC (S. Aureus Smith; 18-20 hours at 37° C.) | MIC (K. pneum. 39645; 18-20 hours at 37° C.) | MIC (Ps. aerug. MGH-2; 18-20 hours at 37° C.) | MIC (S. pyogen. C203; 18-20 hours at 37° C.) | further results |
| --- | --- | --- | --- | --- | --- | --- | --- | --- | --- | --- | --- | --- | --- | --- |
| CCCCC(CC)CNc1cc[n+](CCCCCCC[n+]2ccc(NCC(CC)CCCC)cc2)cc1 (stereo not shown) [Example 55, 1,7-bis-[4-(2-ethylhexylamino)-1-pyridinium]heptane dibromide] | 3.9 µg/mL | 3.9 µg/mL | 3.9 µg/mL | active | 7.8 µg/mL | 7.8 µg/mL | 1.95 µg/mL | 15.6 µg/mL | > 125 µg/mL | 0.49 µg/mL | 7.8 µg/mL | 125 µg/mL | 0.49 µg/mL |  |
| CCCCCCCNc1cc[n+](CCCCC[n+]2ccc(NCCCCCCC)cc2)cc1 [Example 60, 1,5-bis-[4-(heptylamino)-1-pyridinium]pentane dibromide] | 3.9 µg/mL | 31.3 µg/mL | 7.8 µg/mL | active | 15.6 µg/mL | 15.6 µg/mL | 7.8 µg/mL | 15.6 µg/mL | > 125 µg/mL | 0.49 µg/mL | 31.3 µg/mL | 125 µg/mL | 1.95 µg/mL |  |
| CCCCCCCNc1cc[n+](CCCCCCC[n+]2ccc(NCCCCCCC)cc2)cc1 [Example 21, 1,7-bis-[4-(heptylamino)-1-pyridinium]heptane dibromide] | 1.95 µg/mL | 1.95 µg/mL | 1.95 µg/mL | active | 3.9 µg/mL | 3.9 µg/mL | 3.9 µg/mL | 15.6 µg/mL | 125 µg/mL | 0.24 µg/mL | 3.9 µg/mL | 125 µg/mL | 0.98 µg/mL |  |
| c1c[n+](CCCCCC[n+]2ccc(NC3CCCCC3)cc2)ccc1NC1CCCCC1 [Example 36, 1,6-bis-[4-(cyclohexylamino)-1-pyridinium]hexane dibromide] | 125 µg/mL | > 125 µg/mL | > 125 µg/mL | active | 125 µg/mL | 125 µg/mL | 15.6 µg/mL | 125 µg/mL | > 125 µg/mL | 15.6 µg/mL | > 125 µg/mL | > 125 µg/mL | 15.6 µg/mL |  |
| CCCCCCNc1cc[n+](CCCCCC[n+]2ccc(NCCCCCC)cc2)cc1 [Example 17, 1,6-bis-[4-(hexylamino)-1-pyridinium]-hexane dibromide] | 7.8 µg/mL | 31.3 µg/mL | 0.78 µg/mL | active | 15.6 µg/mL | 15.6 µg/mL |  | 7.8 µg/mL | > 250 µg/mL | 0.49 µg/mL | 125 µg/mL | > 125 µg/mL | > 250 µg/mL |  |
| c1c[n+](CCCCCCCCC[n+]2ccc(NC3CCCCC3)cc2)ccc1NC1CCCCC1 [Example 39, 1,9-bis-[4-(cyclohexylamino)-1-pyridinium]nonane dibromide] | 31.3 µg/mL | 31.3 µg/mL | 31.3 µg/mL | inactive | 15.6 µg/mL | 15.6 µg/mL | 3.9 µg/mL | 7.8 µg/mL | > 500 µg/mL | 0.98 µg/mL | 125 µg/mL | 500 µg/mL | 3.9 µg/mL |  |
| c1c[n+](CCCCCCC[n+]2ccc(NC3CCCCC3)cc2)ccc1NC1CCCCC1 [Example 37, 1,7-bis-[4-(cyclohexylamino)-1-pyridinium]heptane dibromide] | 125 µg/mL | > 125 µg/mL | > 125 µg/mL | active | 125 µg/mL | 125 µg/mL | 15.6 µg/mL | > 125 µg/mL | > 125 µg/mL | 7.8 µg/mL | > 125 µg/mL | 125 µg/mL | 7.8 µg/mL |  |
| CCCCC(CC)CNc1cc[n+](CCCCC[n+]2ccc(NCC(CC)CCCC)cc2)cc1 (stereo not shown) [Example 53, 1,5-bis-[4-(2-ethylhexylamino)-1-pyridinium]pentane dibromide] | 7.8 µg/mL | 15.6 µg/mL | 15.6 µg/mL | active | 31.3 µg/mL | 15.6 µg/mL | 7.8 µg/mL | 31.3 µg/mL | > 125 µg/mL | 0.49 µg/mL | > 125 µg/mL | 125 µg/mL | 0.625 µg/mL |  |
| Nc1cc[n+](CCCCCCCCCC[n+]2ccc(N)cc2)cc1 [II, 1,10-bis-(4-amino-1-pyridinium)decane dibromide, reference compound] |  |  |  |  |  |  |  |  |  |  |  |  |  | MIC (E. coli AB1932-1): 31.3 µg/mL; MIC (E. coli Vogel): 62.5 µg/mL; MIC (E. coli 100/B22; read-out: MIC E. coli 100/B22, 18-20 hours at 37° C.): 62.5 µg/mL; MIC (C. albicans 10231): 250 µg/mL; MIC (C. albicans Wisc.): 62.5 µg/mL; MIC (T. menta. 9129): 15.6 µg/mL; MIC (A. niger 16404): 125 µg/mL; MIC (P. mirab. MGH-1): > 500 µg/mL; MIC (S. Aureus Smith): 7.8 µg/mL; MIC (K. pneum. 39645): 250 µg/mL; MIC (Ps. aerug. MGH-2): 500 µg/mL; MIC (S. pyogen. C203): 7.8 µg/mL |
| CCCCCCCCCCNc1cc[n+](CCCCCC[n+]2ccc(NCCCCCCCCCC)cc2)cc1 [Example 64B, 1,6-bis-[4-(decylamino)-1-pyridinium]hexane dibromide] | 1.95 µg/mL | 1.95 µg/mL | 7.8 µg/mL |  | 1.95 µg/mL | 3.9 µg/mL | 1 µg/mL | 7.8 µg/mL | 1.95 µg/mL | 1 µg/mL | 3.9 µg/mL | 7.8 µg/mL | 1 µg/mL |  |
